The values below come from US20100022483A1, “Substituted Tetracycline Compounds” (Paratek Pharmaceuticals, Inc., priority 2008, published 2010).

In brackets after ≈: the same amount, converted by molar mass. Where two headings read alike, the source gives them in different places. Some results are limits rather than exact numbers.

The nature of data set [1]: Mammalian cytotoxicity assay (resazurin), COS-1 cells. It counts as cell-based. Particulars: African green monkey, read-out: Cytotox. COS-1. The protocol: (§1) COS-1 and CHO-K1 cell suspensions were prepared, seeded into 96-well tissue culture treated black-walled microtiter plates (density determined by cell line), and incubated overnight at 37° C., in 5% CO2 and approximately 95% humidity. The following day, serial dilutions of compound were prepared under sterile conditions and transferred to cell plates. Cell/Compound plates were incubated under the above conditions for 24 hours. Following the incubation period, media/compound was aspirated and 50 μl of resazurin (0.042 mg/ml in PBS w/Ca and Mg) is added. The plates were then incubated under the above conditions for 2 hours and then placed in the dark at room temperature for an additional 30 minutes. Fluorescence measurements were taken (excitation 535 nm, emission 590 nm). The IC50 (concentration of compound causing 50% growth inhibition) was then calculated. Table 3 includes IC50 data for several substituted tetracycline compounds.

The nature of another data set: in vitro. The class given is cell-based. Particulars: Chinese hamster, Cytotox. CHO-K1. The protocol: as §1
Another data set has as its system gram negative bacteria. Briefly: In vitro anti-bacterial activity assay (broth dilution MIC), gram negative bacteria. It counts as cell-based, E. coli. From the text: (§2) Bacterial infections may be caused by a wide variety of gram positive and gram negative bacteria. Some of the compounds of the invention are useful as antibiotics against organisms which are resistant and/or sensitive to other tetracycline compounds. The antibiotic activity of the tetracycline compounds of the invention may by using the in vitro standard broth dilution method described in Waitz, J. A., CLSI, Document M7-A2, vol. 10, no. 8, pp. 13-20, 2nd edition, Villanova, Pa. (1990).
(§3) The following assay was used to determine the efficacy of the tetracycline compounds against gram positive and gram negative bacteria. 2 mg of each compound was dissolved in 100 μl of DMSO. […] The tetracycline compound solutions were diluted to 50 μL volumes, with a test compound concentration of 0.098 μg/ml. Optical density (OD) determinations were made from fresh log-phase broth cultures of the test strains. Dilutions were made to achieve a final cell density of […] CFU/ml. At OD=1, cell densities for different genera were approximately:
(§4) 50 μl of the cell suspensions were added to each well of microtiter plates. The final cell density was approximately 5×10^5 CFU/ml. These plates were incubated at 35° C. in an ambient air incubator for approximately 18 hours. The plates were read with a microplate reader and were visually inspected when necessary. The MIC was defined as the lowest concentration of the tetracycline compound that inhibits growth. Table 3 includes MIC data for several substituted tetracycline compounds.

In the next data set the test system is 3T3 fibroblast cells. Description: In vitro phototoxicity assay (neutral red; UV light-treated vs dark control plates). The class given is cell-based. Particulars: for Photo Toxicity UV Tox50: UV light 50 minutes; for Photo Toxicity Dark Tox50: dark control plate. Here is the method:
3T3 fibroblast cells were harvested and plated at a concentration of 1×10^5 cells/mL and the plates were incubated overnight at 37° C., in 5% CO2 and approximately 95% humidity. On the following day the medium was removed from the plates and replaced with Hanks' Balanced Salt Solution (HBSS). Compound dilutions were made in HBSS and added to the plates. For each compound tested, a duplicate plate was prepared that was not exposed to light as a control for compound toxicity. Plates were then incubated in a dark drawer (for controls), or under UV light (meter reading of 1.6-1.8 mW/cm^2) for 50 minutes. Cells were then washed with HBSS, fresh medium was added, and plates were incubated overnight as described above. The following day neutral red was added as an indicator of cell viability. The plates were then incubated for an additional 3 hours. Cells were then washed with HBSS and blotted on absorbent paper to remove excess liquid. A solution of 50% EtOH, 10% glacial acetic acid was added and after 20 minutes incubation the plate's absorbance at 535 nm was read using a Wallac Victor 5 spectrophotometer. The phototoxicity reflected the difference between the light-treated and control cultures. Table 3 includes phototoxicity (μM) data for several substituted tetracycline compounds.

Another data set has as its system gram positive bacteria. Description: In vitro anti-bacterial activity assay (broth dilution MIC), gram positive bacteria. The class given is cell-based, S. aureus. Particulars: 18 h.
From the text: as §2, §3, §4

Where [2] appears, read: Escherichia coli, 18 h, E. coli D1 209, read-out: Median MIC's G− E. coli D1 209.
Setting [3] is: Escherichia coli, 18 h, E. coli MG 1655, read-out: Median MIC's G− E. coli MG 1655.
The mark [4] stands for this setting: Escherichia coli, ATCC25922, 18 h, E. coli ATCC 25922, read-out: Median MIC's G− E. coli ATCC 25922.
[5] abbreviates: Pseudomonas aeruginosa, 18 h, P. aeruginosa K201 PAO6609, read-out: Median MIC's G− P. aeruginosa K201 PAO6609.
[6] abbreviates: Staphylococcus aureus, S. aureus MRSA5, read-out: Median MIC's G+ S. aureus MRSA5.
Where [7] appears, read: Staphylococcus aureus, S. aureus RN450, read-out: Median MIC's G+ S. aureus RN450.
Setting [8] is: Streptococcus pneumoniae, S. pneumoniae 157E-Strep, read-out: Median MIC's G+ S. pneumoniae 157E-Strep.

As a reminder, the MIC is the lowest concentration found to suppress growth. Consider `CCN(CC)CCCC(C)NC(=O)c1ccc(O)c2c1C[C@H]1C[C@H]3[C@H](N(C)C)C(O)=C(C(N)=O)C(=O)[C@@]3(O)C(O)=C1C2=O` (stereo partly shown) [AI], for which the IC50 at 24 h (in data set [1]; in the data set “in vitro”) was more than 109 µM throughout. Further, the minimum inhibitory concentration (MIC) in the data set on gram negative bacteria (setting [2]), with gram negative bacteria (setting [3]), in the data set on gram negative bacteria (setting [4]), in the data set on gram negative bacteria (setting [5]), in the data set on gram positive bacteria (setting [6]) and in the data set with gram positive bacteria (setting [7]) was 64 µg/mL (≈ 107 µM) each time. Also, the MIC with gram positive bacteria (setting [8]) is 64 µg/mL (≈ 107 µM). For the same compound, the “Photo Toxicity UV Tox50” value in the data set on 3T3 fibroblast cells is more than 108.86 µM. Moreover, the “Photo Toxicity Dark Tox50” value in the data set on 3T3 fibroblast cells is more than 108.86 µM.
As for `CN(CCC#N)Cc1cccc(-c2ccc(O)c3c2C[C@H]2C[C@H]4[C@H](N(C)C)C(O)=C(C(N)=O)C(=O)[C@@]4(O)C(O)=C2C3=O)c1` [BL], the IC50 at 24 h (in data set [1]; in the data set “in vitro”) was more than 13.6 µM each time. In addition, the MIC worked out at 16 µg/mL (≈ 27.3 µM) with gram negative bacteria (setting [2]); 16 µg/mL (≈ 27.3 µM) with gram negative bacteria (setting [3]); 4 µg/mL (≈ 6.82 µM) with gram negative bacteria (setting [4]); 64 µg/mL (≈ 109 µM) with gram negative bacteria (setting [5]); 2 µg/mL (≈ 3.41 µM) with gram positive bacteria (setting [6]); 0.06 µg/mL (≈ 0.102 µM) with gram positive bacteria (setting [7]). For the same compound, the MIC in the data set on gram positive bacteria (setting [8]) is 0.06 µg/mL (≈ 0.102 µM). Besides, the “Photo Toxicity UV Tox50” value in the data set with 3T3 fibroblast cells was more than 136.45 µM. Further, the “Photo Toxicity Dark Tox50” value with 3T3 fibroblast cells was more than 136.45 µM.
Regarding `CN(C)CCNCc1ccc(-c2ccc(O)c3c2C[C@H]2C[C@H]4[C@H](N(C)C)C(O)=C(C(N)=O)C(=O)[C@@]4(O)C(O)=C2C3=O)o1` [CY], the IC50 at 24 h (in data set [1]; in “in vitro”) was more than 142 µM throughout. The MIC in the data set on gram negative bacteria (setting [2]) was 64 µg/mL (≈ 110 µM); in the data set on gram negative bacteria (setting [3]) it was 2 µg/mL (≈ 3.44 µM); in the data set on gram negative bacteria (setting [4]) it was 4 µg/mL (≈ 6.89 µM); with gram negative bacteria (setting [5]) it was 64 µg/mL (≈ 110 µM); in the data set on gram positive bacteria (setting [6]), 64 µg/mL (≈ 110 µM); in the data set with gram positive bacteria (setting [7]), 0.25 µg/mL (≈ 0.431 µM). The MIC in the data set with gram positive bacteria (setting [8]) was determined as 0.06 µg/mL (≈ 0.103 µM). In addition, the “Photo Toxicity UV Tox50” value in the data set on 3T3 fibroblast cells is more than 142.02 µM. Besides, in the data set with 3T3 fibroblast cells, the “Photo Toxicity Dark Tox50” value was more than 142.02 µM.
Regarding `CN(C)CCNCc1cccc(-c2ccc(O)c3c2C[C@H]2C[C@H]4[C@H](N(C)C)C(O)=C(C(N)=O)C(=O)[C@@]4(O)C(O)=C2C3=O)c1` [CS], the IC50 at 24 h (in data set [1]; in “in vitro”) was more than 140 µM each time. Moreover, the MIC in the data set on gram negative bacteria (setting [2]) came to 64 µg/mL (≈ 108 µM); with gram negative bacteria (setting [3]), 2 µg/mL (≈ 3.39 µM); in the data set on gram negative bacteria (setting [4]), 4 µg/mL (≈ 6.77 µM); with gram negative bacteria (setting [5]) it was 64 µg/mL (≈ 108 µM); in the data set on gram positive bacteria (setting [6]), 8 µg/mL (≈ 13.5 µM); with gram positive bacteria (setting [7]) it was 0.06 µg/mL (≈ 0.102 µM). In the data set with gram positive bacteria (setting [8]), the MIC came out at 0.06 µg/mL (≈ 0.102 µM). Further, in the data set with 3T3 fibroblast cells, the “Photo Toxicity UV Tox50” value is more than 139.98 µM. The “Photo Toxicity Dark Tox50” value in the data set with 3T3 fibroblast cells is more than 139.98 µM.
Regarding `CC(C)N1CCN(CC(=O)c2ccc(O)c3c2C[C@H]2C[C@H]4[C@H](N(C)C)C(O)=C(C(N)=O)C(=O)[C@@]4(O)C(O)=C2C3=O)CC1` [BX], the IC50 at 24 h (in data set [1]; in the data set “in vitro”) was more than 130 µM each time. The MIC in the data set with gram negative bacteria (setting [2]) is 64 µg/mL (≈ 110 µM); with gram negative bacteria (setting [3]), 8 µg/mL (≈ 13.7 µM); in the data set with gram negative bacteria (setting [4]) it was 8 µg/mL (≈ 13.7 µM); with gram negative bacteria (setting [5]), 64 µg/mL (≈ 110 µM); in the data set with gram positive bacteria (setting [6]) it was 4 µg/mL (≈ 6.87 µM); in the data set on gram positive bacteria (setting [7]) it was 1 µg/mL (≈ 1.72 µM). Besides, in the data set on gram positive bacteria (setting [8]), the minimal inhibitory concentration (MIC) amounted to 0.5 µg/mL (≈ 0.858 µM). Moreover, in the data set with 3T3 fibroblast cells, the “Photo Toxicity UV Tox50” value is more than 130.05 µM. In the data set with 3T3 fibroblast cells, the “Photo Toxicity Dark Tox50” value is more than 130.05 µM.
